Reference: patent publication EP1984353B1, “AURORA KINASE MODULATORS AND METHOD OF USE” (Amgen, Inc, priority 2006, dated 2007)
Where two headings read alike, the source gives them in different places.

Assays:
[1] = target: T1, AuroraB (Homo sapiens, UniProt Q96GD4); experiment: AuroraB Homogeneous Time Resolved Fluorescent (HTRF) kinase assay; type: biochemical; details: average, read-out: AurB_ _IC50_IP (Avg)
T1 construct: 20 µL of AuroraB FL His; His
In short: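 HTRF read-out: after EDTA stop and ~60 min with europium anti-phospho-H3 antibody and streptavidin-APC, 655/615 nm ratio reports phosphorylation. Reaction: 400 pM AuroraB FL His, 23 µM ATP (at Km(app)), 0.1 µM biotin-Histone H3 peptide, 50 mM HEPES pH 7.5, MgCl/MnCl, ~90 min.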

[2] = target: T2, AuroraA-TPX2 (Homo sapiens, UniProt O14965); experiment: AuroraA-TPX2 Homogeneous Time Resolved Fluorescent (HTRF) kinase assay; type: biochemical; details: average, read-out: AurA/TP X2_ IC50_IP (Avg)
T2 construct: 20 µL of AuroraA-TPX2 KD GST; GST
T2 sequence (O14965 133-383 limits assumed): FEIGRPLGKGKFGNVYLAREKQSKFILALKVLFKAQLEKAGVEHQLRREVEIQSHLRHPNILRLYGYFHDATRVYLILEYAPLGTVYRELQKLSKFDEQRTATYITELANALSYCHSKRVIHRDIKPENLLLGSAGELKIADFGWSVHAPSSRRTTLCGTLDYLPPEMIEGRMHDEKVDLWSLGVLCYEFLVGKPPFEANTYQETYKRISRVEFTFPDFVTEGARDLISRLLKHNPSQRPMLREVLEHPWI
T2 sequence (Q9ULW0 1-43 partner limits assumed): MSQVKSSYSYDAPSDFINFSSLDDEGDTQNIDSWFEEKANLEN
In short: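 HTRF read-out: europium anti-phosphoPLK antibody (0.02 nM) plus streptavidin-APC detect phosphorylated biotin-PLK after EDTA stop and overnight equilibration. Kinase step runs about 120 min with Aurora-A/TPX2, ATP and roughly 1 µM PLK peptide at pH 7.5 HEPES buffer with Mg2+ and DTT.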

[3] = system: phosphorylation of Histone H3; experiment: HeLa cell 1-hour phospho-histone assay; type: cell-based; details: Homo sapiens, HeLa, 1 h, HeLa cells, 1 hour, average, read-out: pHH3 EC50_IP (Avg)
In short: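 HeLa cells were exposed to serially diluted compounds for 1 hour at 37 °C (0.5% DMSO final), then fixed, permeabilized and immunostained for phospho-histone H3 (Ser10) with Hoechst counterstain. High-content imaging scored the percentage of pHH3-positive cells.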

[4] = given as numbers, unit inferred

T1 sequence (Q96GD4 whole entry): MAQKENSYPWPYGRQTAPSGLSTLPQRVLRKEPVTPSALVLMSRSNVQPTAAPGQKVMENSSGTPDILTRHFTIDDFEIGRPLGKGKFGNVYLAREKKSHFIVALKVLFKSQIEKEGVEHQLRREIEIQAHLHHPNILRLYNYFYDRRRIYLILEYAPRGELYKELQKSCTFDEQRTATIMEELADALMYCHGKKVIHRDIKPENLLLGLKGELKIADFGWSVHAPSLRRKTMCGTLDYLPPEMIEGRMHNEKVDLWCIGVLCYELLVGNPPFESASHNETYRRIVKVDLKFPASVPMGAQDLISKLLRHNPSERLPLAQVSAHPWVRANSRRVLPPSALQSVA

Row | Structure (SMILES) | IC50 [1, 4] [nM] | IC50 [2, 4] [nM] | EC50 [3, 4] [nM] | IC50 ([1]; given as class symbols) [nM] | IC50 ([2]; given as class symbols) [nM] | EC50 ([3]; given as class symbols) [nM]
1 | Cc1csc(-c2nnc(Nc3ccc(Oc4ncccc4-c4ccnc(N)n4)nc3)c3ccccc23)c1 [compound 332, N-(6-((3-(2-amino-4-pyrimidinyl)-2-pyridinyl)oxy)-3-pyridinyl)-4-(4-methyl-2-thienyl)-1-phthalazinamine] | 1.6 | 5.2 | 3.3 | – | – | –
2 | c1ccc(-c2nnc(Nc3ccc(Oc4ncccc4-c4ccnc(NCC5CCNCC5)n4)cc3)c3ccccc23)cc1 [compound 335, 4-phenyl-N-(4-((3-(2-((4-piperidinylmethyl)amino)-4-pyrimidinyl)-2-pyridinyl)oxy)phenyl)-1-phthalazinamine] | – | – | – | 100 to 500 | 500 to 2500 | 500 to 2500
3 | CN(C)Cc1ccc(-c2nnc(Nc3ccc(Oc4ncccc4-c4ccnc(N)n4)cc3)c3ccccc23)cc1 [compound 336, N-(4-((3-(2-amino-4-pyrimidinyl)-2-pyridinyl)oxy)phenyl)-4-(4-((dimethylamino)methyl)phenyl)-1-phthalazinamine] | – | – | – | 100 to 500 | 500 to 2500 | 500 to 2500
4 | c1ccc(-c2nnc(Nc3ccc(Oc4ncccc4-c4ccnc(NCCCN5CCNCC5)n4)cc3)c3ccccc23)cc1 [compound 340, 4-phenyl-N-(4-((3-(2-((3-(1-piperazinyl)propyl)amino)-4-pyrimidinyl)-2-pyridinyl)oxy)phenyl)-1-phthalazinamine] | – | – | – | ≤ 100 | ≤ 100 | 100 to 500
5 | OCCN(CCO)CCCNc1nccc(-c2cccnc2Oc2ccc(Nc3nnc(-c4ccccc4)c4ccccc34)cc2)n1 [compound 341, 2,2'-((3-((4-(2-((4-((4-phenyl-1-phthalazinyl)amino)phenyl)oxy)-3-pyridinyl)-2-pyrimidinyl)amino)propyl)imino)diethanol] | – | – | – | ≤ 100 | 100 to 500 | 100 to 500
6 | Nc1nccc(-c2cccnc2Oc2ccc(Nc3nnc(-c4cccc(CO)c4)c4ccccc34)cc2)n1 [compound 342, (3-(4-((4-((3-(2-amino-4-pyrimidinyl)-2-pyridinyl)oxy)phenyl)amino)-1-phthalazinyl)phenyl)methanol] | – | – | – | ≤ 100 | ≤ 100 | 100 to 500

Next, values leading:

Row | IC50 [1, 4] [nM] | IC50 [2, 4] [nM] | EC50 [3, 4] [nM] | IC50 ([1]; given as class symbols) [nM] | IC50 ([2]; given as class symbols) [nM] | EC50 ([3]; given as class symbols) [nM] | Structure (SMILES)
7 | – | – | – | ≤ 100 | ≤ 100 | ≤ 100 | CN1CCN(CCCNc2nccc(-c3cccnc3Oc3ccc(Nc4nnc(-c5ccccc5)c5ccccc45)cc3)n2)CC1 [compound 333, N-(4-((3-(2-((3-(4-methyl-1-piperazinyl)propyl)amino)-4-pyrimidinyl)-2-pyridinyl)oxy)phenyl)-4-phenyl-1-phthalazinamine]
8 | – | – | – | ≤ 100 | 100 to 500 | 500 to 2500 | Cc1cc(N2CCCCC2)nnc1Nc1ccc(Oc2ncccc2-c2ccnc(N)n2)cc1 [compound 334, N-(4-((3-(2-amino-4-pyrimidinyl)-2-pyridinyl)oxy)phenyl)-4-methyl-6-(1-piperidinyl)-3-pyridazinamine]
9 | – | – | – | ≤ 100 | ≤ 100 | 100 to 500 | OCC(O)CNc1nccc(-c2cccnc2Oc2ccc(Nc3nnc(-c4ccccc4)c4ccccc34)cc2)n1 (stereo not drawn) [compound 337, 3-((4-(2-((4-((4-phenyl-1-phthalazinyl)amino)phenyl)oxy)-3-pyridinyl)-2-pyrimidinyl)amino)-1,2-propanediol]
10 | – | – | – | ≤ 100 | ≤ 100 | ≤ 100 | CN(C)CCCCNc1nccc(-c2cccnc2Oc2ccc(Nc3nnc(-c4ccccc4)c4ccccc34)cc2)n1 [compound 338, N,N-dimethyl-N'-(4-(2-((4-((4-phenyl-1-phthalazinyl)amino)phenyl)oxy)-3-pyridinyl)-2-pyrimidinyl)-1,4-butanediamine]
11 | – | – | – | ≤ 100 | ≤ 100 | 100 to 500 | OCCCNc1nccc(-c2cccnc2Oc2ccc(Nc3nnc(-c4ccccc4)c4ccccc34)cc2)n1 [compound 339, 3-((4-(2-((4-((4-phenyl-1-phthalazinyl)amino)phenyl)oxy)-3-pyridinyl)-2-pyrimidinyl)amino)-1-propanol]
